# How the values were obtained:
# [1] = biological target: Replicase polyprotein 1ab (Severe acute respiratory syndrome coronavirus 2) (UniProt P0DTD1); details: time 60.0 min
# SARS-CoV-2 [2] = test: Antiviral activity against wild type SARS-CoV-2 Omicron BA.1 infected in HEK293T cells measured after 48 hrs by Nano-Glo luciferase assay; assay type: functional, organism-based; details: Severe acute respiratory syndrome coronavirus 2, Omicron BA.1, HEK-293T
# [3] = Cytotoxicity against African green monkey Vero cells assessed as reduction in cell viability; assay type: toxicity, cell-based; details: chlorocebus sabaeus, vero
# SARS-CoV-2 [4] = test: Antiviral activity against wild type SARS-CoV-2 WA1 infected in HEK293T cells measured after 48 hrs by Nano-Glo luciferase assay; assay type: functional, organism-based; details: Severe acute respiratory syndrome coronavirus 2, WA1, HEK-293T
# SARS-CoV-2 [5] = test: Selectivity ratio of EC50 for antiviral activity against SARS-CoV-2 infected in Vero cells to EC50 for antiviral activity against SARS-CoV-2 infected in human Calu-3 cells; assay type: functional, Severe acute respiratory syndrome coronavirus 2
# [6] = Metabolic stability in human liver microsomes assessed as reduction in decay rate at 1 uM incubated for 90 mins in presence of ritonavir by LC-MS/MS analysis; assay type: ADME, Microsome; details: 1.5 h
# SARS-CoV-2 [7] = test: Antiviral activity against SARS-CoV-2 hCoV-19/USA-WA1/2020 Washington strain infected in Normal human bronchial/tracheal epithelial cells cultured in air-liquid interface media assessed as reduction in viral yield pretreated with compound followed by viral infection for 4 hrs post washout and measured 3 days after virus removal by qRT-PCR analysis; assay type: functional, organism-based; details: Severe acute respiratory syndrome coronavirus 2, hCoV-19/USA-WA1/2020 Washington, Epithelial cell
# [8] = Metabolic stability in human liver microsomes assessed as half life at 1 uM incubated for 90 mins in presence of ritonavir at 1:1 combination by LC-MS/MS analysis; assay type: ADME, Microsome; details: 1.5 h
# CCRF-CEM = test: Cytotoxicity against human CEM cells assessed as reduction in cell viability; assay type: toxicity, cell-based; details: ccrf-cem
# SARS-CoV-2 [9] = test: Antiviral activity against SARS-CoV-2 hCoV-19/USA/GA-EHC-2811C/2021 (Omicron B.1.1.529) infected in human Calu-3 cells assessed as reduction in viral yield measured after 48 hrs by qRT-PCR analysis; assay type: functional, organism-based; details: Severe acute respiratory syndrome coronavirus 2, hCoV-19/USA/GA-EHC-2811C/2021 (Omicron B.1.1.529)
# [10] = biological target: Replicase polyprotein 1ab (Severe acute respiratory syndrome coronavirus 2, UniProt P0DTD1); test: (§1) Inhibition of amino-terminal His-SUMO tagged SARS-CoV-2 3CLpro using HilyteFluor 488-Glu-Ser-Ala-Thr-Leu-Gln-Ser-Gly-Leu-Arg-Lys-Ala-Lys-QXL 520 as FRET peptide substrate preincubated for 90 mins followed by substrate addition and measured over 30 mins by continuous FRET assay
# SARS-CoV-2 [11] = test: Antiviral activity against SARS-CoV-2 infected in human Caco-2 cells assessed as reduction in viral yield measured after 72 hrs by qRT-PCR analysis; assay type: functional, organism-based, Severe acute respiratory syndrome coronavirus 2
# Huh-7 = test: Cytotoxicity against human Huh-7 cells assessed as reduction in cell viability; assay type: toxicity, cell-based; details: huh-7
# [12] = Cytotoxicity against human PBMC cells assessed as reduction in cell viability; assay type: toxicity, cell-based; details: pbmc
# [13] = biological target: Replicase polyprotein 1ab (Severe acute respiratory syndrome coronavirus 2) (UniProt P0DTD1); test: as §1, with “Potency index, ratio of nirmatrelvir IC50 to test compound IC50 for inhibition” for “Inhibition”; details: time > 120.0 min
# SARS-CoV-2 [14] = test: Antiviral activity against SARS-CoV-2 infected in Vero cells assessed as reduction in viral yield measured after 48 hrs by qRT-PCR analysis; assay type: functional, organism-based; details: Severe acute respiratory syndrome coronavirus 2, Vero; for EC50: 48 h; for EC90: time 48 hrs
# Human coronavirus OC43 = test: Antiviral activity against Human coronavirus OC43 infected in Vero cells assessed as reduction in viral yield preincubated with virus for 1 hr followed by washout and compound treatment and measured after 3 days by qRT-PCR analysis; assay type: functional, organism-based; details: Betacoronavirus 1, Vero; for EC90: 72 h, time 3 day
# [15] = Metabolic stability in human liver microsomes assessed as half life at 1 uM measured after 0 to 90 mins by LC-MS/MS analysis; assay type: ADME, Microsome; details: time 0-90 min
# [16] = biological target: Replicase polyprotein 1ab (Severe acute respiratory syndrome coronavirus 2) (UniProt P0DTD1); test: Binding affinity to SARS-CoV-2 3CLpro assessed as thermal stabilization by measuring fold increase in melting temperature incubated for 60 mins by SYPRO orange dye based thermal shift assay relative to nirmatrelvir
# Caco-2 = test: Cytotoxicity against human Caco-2 cells assessed as reduction in cell viability; assay type: toxicity, cell-based; details: caco-2
# [17] = Metabolic stability in human liver microsomes assessed as half life at 1 uM incubated for 90 mins in presence of ritonavir at 1:10 combination by LC-MS/MS analysis; assay type: ADME, Microsome; details: 1.5 h
# SARS-CoV-2 [18] = test: Selectivity ratio of EC50 for antiviral activity against SARS-CoV-2 infected in Vero cells to EC50 for antiviral activity against SARS-CoV-2 infected in human Caco-2 cells; assay type: functional, Severe acute respiratory syndrome coronavirus 2
# Calu-3 = test: Cytotoxicity against human Calu-3 cells assessed as reduction in cell viability; assay type: toxicity, cell-based; details: calu-3
# [19] = Solubility of compound in PBS; assay type: physicochemical; details: buffer
# SARS-CoV-2 [20] = test: Antiviral activity against SARS-CoV-2 infected in human Calu-3 cells assessed as reduction in viral yield measured after 72 hrs by qRT-PCR analysis; assay type: functional, organism-based, Severe acute respiratory syndrome coronavirus 2; details: Severe acute respiratory syndrome coronavirus 2, Calu-3; time 72 hrs
# [21] = biological target: Replicase polyprotein 1ab (Severe acute respiratory syndrome coronavirus 2) (UniProt P0DTD1); details: time 60.0 min; remark: listed apart in the source
structure (smiles),measurement,setting,value
Cc1cc(C(=O)N[C@@H](Cc2cccc3ccccc23)C(=O)N[C@@H](CC(C)C)C(=O)N[C@H](C=O)C[C@@H]2CCCNC2=O)no1,Tm,[1],69.9 °C
same,EC50,SARS-CoV-2 [2],320 nM
same,CC50,[3],84.3 µM
same,EC50,SARS-CoV-2 [4],200 nM
same,Ratio EC50,SARS-CoV-2 [5],3
same,Stability,[6],Stable
same,EC50,SARS-CoV-2 [7],600 nM
same,EC90,SARS-CoV-2 [7],1800 nM
same,t1/2,[8],> 90 min
same,CC50,CCRF-CEM,13.9 µM
same,EC50,"SARS-CoV-2 [9]; Calu-3, 48 h",1100 nM
same,EC90,"SARS-CoV-2 [9]; Calu-3, time 48 hrs",3.5 µM
same,IC50,[10],166 nM
same,EC50,"SARS-CoV-2 [11]; Severe acute respiratory syndrome coronavirus 2, Caco-2, 72 h",100 nM
same,EC90,"SARS-CoV-2 [11]; Severe acute respiratory syndrome coronavirus 2, Caco-2, time 72 hrs",1200 nM
same,CC50,Huh-7,32.7 µM
same,CC50,[12],30.9 µM
same,Ratio IC50,[13],2
same,EC50,SARS-CoV-2 [14],4.6 µM
same,EC90,SARS-CoV-2 [14],9 µM
same,EC50,Human coronavirus OC43,100 nM
same,EC90,Human coronavirus OC43,0.7 µM
same,t1/2,[15],< 5 min
same,fold change (FC),[16],2
same,CC50,Caco-2,> 100 µM
same,t1/2,[17],> 90 min
same,Ratio EC50,SARS-CoV-2 [18],15
same,CC50,Calu-3,> 100 µM
same,solubility,[19],< 0.01 mg/mL
same,EC90,SARS-CoV-2 [20],4.3 µM
same,ΔTm,[21],13.9 °C
CC(C)C[C@H](NC(=O)[C@H](Cc1cccc2ccccc12)NC(=O)c1cc(C(F)(F)F)on1)C(=O)N[C@H](C=O)C[C@@H]1CCCNC1=O,CC50,[3],49.9 µM
same,CC50,CCRF-CEM,20.3 µM
same,CC50,Huh-7,42.5 µM
same,CC50,[12],49.9 µM
same,EC50,SARS-CoV-2 [14],6.1 µM
same,EC90,SARS-CoV-2 [14],9.9 µM
same,EC50,Human coronavirus OC43,700 nM
same,EC90,Human coronavirus OC43,1 µM
CC(C)C[C@H](NC(=O)[C@H](Cc1cccc2ccccc12)NC(=O)OCc1ccccc1)C(=O)N[C@H](C#N)C[C@@H]1CCCNC1=O,CC50,[3],> 100 µM
same,CC50,CCRF-CEM,> 100 µM
same,CC50,Huh-7,> 100 µM
same,CC50,[12],> 100 µM
same,EC50,SARS-CoV-2 [14],> 10 µM
same,EC90,SARS-CoV-2 [14],> 10 µM
same,EC50,Human coronavirus OC43,700 nM
same,EC90,Human coronavirus OC43,5.1 µM
CCOC(=O)/C=C/[C@H](C[C@@H]1CCCNC1=O)NC(=O)[C@H](CC(C)C)NC(=O)[C@H](Cc1cccc2ccccc12)NC(=O)c1cc(C)on1,CC50,[3],> 100 µM
same,CC50,CCRF-CEM,33.4 µM
same,CC50,Huh-7,51.4 µM
same,CC50,[12],> 100 µM
same,EC50,SARS-CoV-2 [14],> 10 µM
same,EC90,SARS-CoV-2 [14],> 10 µM
same,EC50,Human coronavirus OC43,7300 nM
same,EC90,Human coronavirus OC43,9.7 µM
CC(C)C[C@H](NC(=O)[C@H](Cc1cccc2ccccc12)NC(=O)OCc1ccccc1)C(=O)N[C@H](C=O)Cn1ccnn1,CC50,[3],35.7 µM
same,CC50,CCRF-CEM,25.3 µM
same,CC50,Huh-7,25.3 µM
same,CC50,[12],35.7 µM
same,EC50,SARS-CoV-2 [14],4.7 µM
same,EC90,SARS-CoV-2 [14],9.5 µM
same,EC50,Human coronavirus OC43,53500 nM
same,EC90,Human coronavirus OC43,99 µM
CC(C)C[C@H](NC(=O)[C@H](Cc1ccc(F)cc1)NC(=O)OCc1ccccc1)C(=O)N[C@H](C=O)C[C@@H]1CCCNC1=O,CC50,[3],> 100 µM
same,CC50,CCRF-CEM,> 100 µM
same,CC50,Huh-7,> 100 µM
same,CC50,[12],> 100 µM
same,EC50,SARS-CoV-2 [14],6.7 µM
same,EC90,SARS-CoV-2 [14],7.4 µM
same,EC50,Human coronavirus OC43,800 nM
same,EC90,Human coronavirus OC43,2.6 µM
CC(C)C[C@H](NC(=O)[C@H](Cc1cccc2ccccc12)NC(=O)OCc1ccccc1)C(=O)N[C@H](C=O)CNC(=O)N1CCC1,CC50,[3],> 100 µM
same,CC50,CCRF-CEM,43.6 µM
same,CC50,Huh-7,43.6 µM
same,CC50,[12],> 100 µM
same,EC50,SARS-CoV-2 [14],> 10 µM
same,EC90,SARS-CoV-2 [14],> 10 µM
same,EC50,Human coronavirus OC43,18000 nM
same,EC90,Human coronavirus OC43,84 µM

# Source: ChEMBL document CHEMBL5505997, “Synthesis and biological evaluation of novel peptidomimetic inhibitors of the coronavirus 3C-like protease” (Eur J Med Chem, 2024)
